Source: patent US8026367B2, “(R)-arylalkylamino derivatives and pharmaceutical compositions containing them” (Dompe PHA.R.MA S.p.A., priority 2005, dated 2011)
Where a name gives a salt, the structure may show the parent alone.

What was measured:
[1] = tested on: C5a induced PMN migration; assay: Inhibition of C5a induced chemotaxis of human PMNs (microchamber assay); format: cell-based; conditions: compound concentration range between 10^−7 and 10^−8 M, C5a 10^−9 M, 60 min at 37° C.
Protocol: The compounds of the invention of formula (I) were evaluated in vitro for their ability to inhibit chemotaxis of polymorphonucleate leukocytes (hereinafter referred to as PMNs) and monocytes induced by the fractions of the complement C5a and C5a-desArg. For this purpose, to isolate the PMNs from heparinized human blood, taken from healthy adult volunteers, mononucleates were removed by means of sedimentation on dextran (according to the procedure disclosed by W. J. Ming et al., J. Immunol., 138, 1469, 1987) and red blood cells by a hypotonic solution. The cell vitality was calculated by exclusion with Trypan blue, whilst the ratio of the circulating polymorphonucleates was estimated on the cytocentrifugate after staining with Diff Quick.
Human recombinant fractions C5a and C5a-desArg (Sigma) were used as stimulating agents in the chemotaxis experiments, giving practically identical results.
The lyophilized C5a was dissolved in a volume of HBSS containing 0.2% bovin serum albumin BSA so thus to obtain a stock solution having a concentration of 10^−5 M to be diluted in HBSS to a concentration of 10^−9 M, for the chemotaxis assays.
In the chemotaxis experiments, the PMNs were incubated with the compounds of the invention of formula (I) for 15′ at 37° C. in an atmosphere containing 5% CO2.
The chemotactic activity of the C5a was evaluated on human circulating polymorphonucleates (PMNs) resuspended in HBSS at a concentration of 1.5×10^6 PMNs per mL.
During the chemotaxis assay (according to W. Falket et al., J. Immunol. Methods, 33, 239, 1980) PVP-free filters with a porosity of 5 μm and microchambers suitable for replication were used.
The compounds of the invention in formula (I) were evaluated at a concentration ranging between 10^−7 and 10^−10 M; for this purpose they were added, at the same concentration, both to the lower pores and the upper pores of the microchamber. The wells in the lower part contain the solution of C5a or the simple carrier, those in the upper part contain the suspension of PMNs.
Inhibition of C5a-induced chemotactic activity by the individual compounds of the invention of formula (I) was evaluated by incubating the microchamber for the chemotaxis for 60 min at 37° C. in an atmosphere containing 5% CO2.
By way of example, the inhibition data of the chemotaxis of PMN (concentration range between 10^−7 and 10^−8 M) of some representative compounds of the invention are reported in Table 1.

SMILES | % inhibition C5a induced PMN migration [1] | melting point
C[C@@H](NS(C)(=O)=O)c1ccc(C(C)(C)S(=O)(=O)c2ccccc2)cc1 [Compound 13, N-((1R)-1-{4-[1-methyl-1-(phenylsulfonyl)ethyl]phenyl}ethyl)methanesulfonamide] | 64 ± 8% | 
C[C@@H](NC(=O)c1cccnc1)c1ccc(OS(=O)(=O)C(F)(F)F)cc1 [Compound 15, 4-{[(1R)-1-(pyridine-3-ylcarbonyl)amino]ethyl]}phenyl trifluoromethanesulfonate] | 46 ± 6% | 
C[C@@H](NS(=O)(=O)c1cccnc1)c1ccc(OS(=O)(=O)C(F)(F)F)cc1 [Compound 3, 4-{(1R)-1-[(pyridine-3-ylsulfonyl)amino]ethyl}phenyl trifluoromethanesulfonate] | 47 ± 7% | 
C[C@@H](NC(=O)CCCN1CCCCC1)c1ccc(OS(=O)(=O)C(F)(F)F)cc1 [Compound 19, N-[(1R)-1-(4-trifluoromethanesulfonyloxy)phenylethyl]-4-piperidin-1-ylbutanamide] | 54 ± 17% | 
C[C@@H](NS(=O)(=O)c1ccccc1)c1cccc(C(=O)c2ccccc2)c1 [Compound 2, N-[(1R)-1-(3-benzoylphenyl)ethyl]benzenesulfonamide] | 59 ± 10% | 
C[C@@H](NS(=O)(=O)c1cccs1)c1ccc(OS(=O)(=O)C(F)(F)F)cc1 [Compound 7, 4-{(1R)-1-[(thien-2-ylsulfonyl)amino]ethyl}phenyl trifluoromethanesulfonate] | 41 ± 8% | 
C[C@@H](NC(=O)c1ccco1)c1cccc(C(=O)c2ccccc2)c1 [Compound 17, N-[(1R)-1-(3-benzoylphenyl)ethyl]-2-furamide] | 63 ± 10% | 
C[C@@H](NS(=O)(=O)c1ccccc1)c1ccc(OS(=O)(=O)C(F)(F)F)cc1 [Compound 1, 4-{(1R)-1-[(phenylsulfonyl)amino]ethyl}phenyl trifluoromethanesulfonate] | 50 ± 1 % | 
C[C@@H](Nc1nc(C(F)(F)F)cs1)c1cccc(C(=O)c2ccccc2)c1 [Compound 21] | 42 ± 5% | 
CC(C)C(=O)N[C@H](C)c1ccc(OS(=O)(=O)C(F)(F)F)cc1 [Compound 14, 4-[(1R)-1-(isobutyrylamino)ethyl]phenyl trifluoromethanesulfonate] | 60 ± 8% | 
C[C@@H](NS(=O)(=O)c1ccc(C(=O)O)o1)c1cccc(C(=O)c2ccccc2)c1 [Compound 11, 5-({[(1R)-1-(3-benzoylphenyl)ethyl]amino}sulfonyl)-2-furoic acid] | 40 ± 4% | 
C[C@@H](NC(=O)CCCN1CCCC1)c1ccc(OS(=O)(=O)C(F)(F)F)cc1 [Compound 20, 4-{(1R)-1-[(4-pyrrolidin-1-ylbutanoyl)amino]ethyl]}phenyl trifluoromethanesulfonate] | 47 ± 1% | 
CC(C)[C@@H](NS(C)(=O)=O)c1ccc(OS(=O)(=O)C(F)(F)F)cc1 [Compound 12, 4-{(1R)-2-methyl-1-[(methylsulfonyl)amino]propyl}phenyl trifluoromethanesulfonate] | 40 ± 5% | 
C[C@@H](NS(=O)(=O)c1cccs1)c1cccc(C(=O)c2ccco2)c1 [Compound 5, N-[(1R)-1-[3-(2-furoyl)phenyl]ethyl}thiophene-2-sulfonamide] | 60 ± 8% | 105 to 106 °C
C[C@@H](NC(=O)C1CCC1)c1cccc(C(=O)c2ccccc2)c1 [Compound 18, N-[(1R)-1-(3-benzoylphenyl)ethyl]cyclobutanecarboxamide] | 57 ± 4% | 90 to 93 °C
COC(=O)c1ccc(S(=O)(=O)N[C@H](C)c2cccc(C(=O)c3ccccc3)c2)o1 [Compound 10, methyl 5-({[(1R)-1-(3-benzoylphenyl)ethyl]amino}sulfonyl)-2-furoate] | 72 ± 6% | 
C[C@@H](NC(=O)c1ccccc1)c1cccc(C(=O)c2ccccc2)c1 [Compound 16, N-[(1R)-1-(3-benzoylphenyl)ethyl]benzamide] | 49 ± 5 % | 
C[C@@H](NS(C)(=O)=O)c1cccc(C(=O)c2ccccc2)c1 [Compound 4, N-[(1R)-1-(3-benzoylphenyl)ethyl]methanesulfonamide] | 48 ± 8% | 
C[C@@H](NS(C)(=O)=O)c1cccc(C(=O)c2ccco2)c1 [Compound 6, N-[(1R)-1-[3-(2-furoyl)phenyl]ethyl}methanesulfonamide] | 52 ± 7% | 
C[C@@H](NS(=O)(=O)c1cccs1)c1cccc(C(=O)c2ccccc2)c1 [Compound 8, N-[(1R)-1-(3-benzoylphenyl]ethyl}thiophene-2-sulfonamide] | 55 ± 14% | 
C[C@@H](NC(=O)c1cccnc1)c1ccc(OS(=O)(=O)C(F)(F)F)cc1 (as salt: methanesulfonate) [Compound 15, 4-{[(1R)-1-(pyridine-3-ylcarbonyl)amino]ethyl]}phenyl trifluoromethanesulfonate] |  | 120 to 122 °C
